Two molecules from ChEMBL document CHEMBL1932991, “Novel ATP competitive MK2 inhibitors with potent biochemical and cell-based activity throughout the series” (Bioorg Med Chem Lett, 2012) can be followed below.

In one data set the test system is THP-1. Nature of the data set: Inhibition of LPS-induced TNFalpha production in human THP1 cells pre-incubated for 30 mins prior to LPS-induction measured after 4 hrs by ELISA. It is filed as functional, cell-based. As to conditions: Homo sapiens, THP-1.
The subject of the next data set is PBMC. Description: Inhibition of LPS-induced TNFalpha production in human PBMC pre-incubated for 30 mins prior to LPS-induction measured after 4 hrs by ELISA. It is filed as functional, cell-based. Particulars: Homo sapiens, PBMC. On the technique in general: In an ELISA, binding on a coated surface is turned into a signal by an enzyme label.
Data set [1] in a line: Plasma protein binding in human. It is filed as ADME, cell-free. As to conditions: read-out: PPB (converted).
The nature of data set [2]: Dissociation constant, pKa of the compound at pH 7.4. Type of data set: physicochemical.
The target in data set [3] is T1, MAP kinase-activated protein kinase 2 (Homo sapiens, UniProt P49137). Description: Inhibition of MK2-mediated HSP27 phosphorylation in LPS-stimulated human THP1 cells pre-incubated for 60 mins prior to LPS-induction measured after 60 mins by multi-spot assay. It is filed as cell-based, THP-1.
T1 sequence (P49137 whole entry): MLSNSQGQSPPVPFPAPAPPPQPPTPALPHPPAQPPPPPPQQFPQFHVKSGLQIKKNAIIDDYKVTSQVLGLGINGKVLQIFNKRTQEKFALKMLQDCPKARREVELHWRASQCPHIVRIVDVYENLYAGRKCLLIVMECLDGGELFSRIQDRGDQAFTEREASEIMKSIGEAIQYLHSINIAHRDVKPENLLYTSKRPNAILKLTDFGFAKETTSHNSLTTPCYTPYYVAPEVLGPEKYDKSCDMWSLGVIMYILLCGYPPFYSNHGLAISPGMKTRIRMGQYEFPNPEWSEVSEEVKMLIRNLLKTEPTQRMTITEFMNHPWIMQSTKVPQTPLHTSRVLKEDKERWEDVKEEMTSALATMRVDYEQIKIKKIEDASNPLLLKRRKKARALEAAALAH
Data set [4] addresses T1, MAP kinase-activated protein kinase 2. Description: Inhibition of MK2 using Fluo-betaA-11A NeoMPS as substrate pre-incubated for 30 mins before substrate addition measured after 2 hrs by IMAP assay.

Structures are written as SMILES.

As usually defined, the EC50 is the midpoint of the concentration-response curve. The pKa is the negative logarithm of the acid dissociation constant. In the case of `O=C(Nc1cc(-c2cc3c([nH]2)C2(CCCNC2)CNC3=O)ccn1)c1cccc(OC(F)(F)F)c1` (racemic), the EC50 in the data set with THP-1 was 620 nM; in the data set with PBMC, 200 nM; in data set [3], 610 nM; in data set [4] it was 11 nM. Further, the fraction unbound in data set [1] was 0.013. Also, the pKa in data set [2] worked out at 8.2.
Regarding `O=C(Nc1cc(-c2cc3c([nH]2)C2(CCNC2)CNC3=O)ccn1)c1cccc(OC(F)(F)F)c1` (racemic), the concentration for a half-maximal effect (EC50) in the data set with THP-1 is 690 nM; with PBMC, 650 nM; in data set [3] it was 400 nM; in data set [4], 1.6 nM. Also, in data set [1], the fraction unbound was 0.017. In data set [2], this molecule showed a pKa of 8.4.
